Assay results taken from US3984547A, “Veterinary feedstuffs” (Bayer Aktiengesellschaft, priority 1971, dated 1976).
Values after ≈ are worked out from the molar mass of the structure shown. Where two headings read alike, the source gives them in different places.

Experiments:
[1] = test system: Pseudomonas aeruginosa Bonn; test: MIC in vitro, plate test (agar), Table 1; type: cell-based; conditions: about 37° C, readings 24 and 48 h
Protocol: (§1) The minimum inhibitory concentrations in vitro for some of the new compounds shown in Table 1 (MIC) were determined by the plate test in an agar medium of the following composition: |proteose peptone 10.0 g per liter |5.1 × 10^3 germs were inoculated per plate. […]. Readings were taken after 24 and 48 hours, and the incubation temperature was about 37° C.

[2] = test system: Escherichia coli A 261; test: MIC in vitro, plate test (agar), Table 1; type: cell-based; conditions: A261, about 37° C, readings 24 and 48 h
Protocol: as §1

[3] = test system: Escherichia coli C 165; test: MIC in vitro, plate test (agar), Table 1; type: cell-based; conditions: C165, about 37° C, readings 24 and 48 h
Protocol: as §1

[4] = test system: Klebsiella pneumonia 63; test: MIC in vitro, plate test (agar), Table 1; type: cell-based; conditions: Klebsiella pneumoniae, about 37° C, readings 24 and 48 h
Protocol: as §1

[5] = test system: Kletosiella pneumonia 8085; test: MIC in vitro, plate test (agar), Table 1; type: cell-based; conditions: about 37° C, readings 24 and 48 h
Protocol: as §1

[6] = test system: Proteus vulgaris species; test: MIC in vitro, plate test (agar), Table 1; type: cell-based; conditions: about 37° C, readings 24 and 48 h
Protocol: as §1

[7] = test system: Pseudomonas aeruginosa Walter; test: MIC in vitro, plate test (agar), Table 1; type: cell-based; conditions: about 37° C, readings 24 and 48 h
Protocol: as §1

[8] = test system: Staphylococcus aureus 133; test: MIC in vitro, plate test (agar), Table 1; type: cell-based; conditions: about 37° C, readings 24 and 48 h
Protocol: as §1

[9] = test system: Streptococcus pyogenes W; test: MIC in vitro, plate test (agar), Table 1; type: cell-based; conditions: about 37° C, readings 24 and 48 h
Protocol: as §1

[10] = test system: Corynebacterium diphteriae gravis; test: MIC, series dilution test (complete medium), Table 2; type: cell-based; conditions: 37° C, 18, 24 and 48 h, read-out: Minimum inhibitory concentration (MIC)
Protocol: (§2) Minimum inhibitory concentration (MIC) in γ/ml of medium, measured by the series dilution test (complete medium), incubation temperatures: 37° C, determination of the MIC after 18, 24 and 48 hours.

[11] = test system: Escherichia coli 14; test: as above; type: cell-based; conditions: 37° C, 18, 24 and 48 h, read-out: Minimum inhibitory concentration (MIC)
Protocol: as §2

[12] = test system: Escherichia coli 183/58; test: as above; type: cell-based; conditions: 37° C, 18, 24 and 48 h, read-out: Minimum inhibitory concentration (MIC)
Protocol: as §2

[13] = test system: Escherichia coli 2; test: as above; type: cell-based; conditions: 37° C, 18, 24 and 48 h, read-out: Minimum inhibitory concentration (MIC)
Protocol: as §2

[14] = test system: Escherichia coli 55 B 5; test: as above; type: cell-based; conditions: 55B5, 37° C, 18, 24 and 48 h, read-out: Minimum inhibitory concentration (MIC)
Protocol: as §2

[15] = test system: Escherichia coli A 261; test: as above; type: cell-based; conditions: A261, 37° C, 18, 24 and 48 h, read-out: Minimum inhibitory concentration (MIC)
Protocol: as §2

[16] = test system: Escherichia coli C 165; test: as above; type: cell-based; conditions: C165, 37° C, 18, 24 and 48 h, read-out: Minimum inhibitory concentration (MIC)
Protocol: as §2

[17] = test system: Klebsiella 63; test: as above; type: cell-based; conditions: 37° C, 18, 24 and 48 h, read-out: Minimum inhibitory concentration (MIC)
Protocol: as §2

[18] = test system: Klebsiella ATCC 10031; test: as above; type: cell-based; conditions: ATCC10031, 37° C, 18, 24 and 48 h, read-out: Minimum inhibitory concentration (MIC)
Protocol: as §2

[19] = test system: Klebsiella K 10; test: as above; type: cell-based; conditions: K10, 37° C, 18, 24 and 48 h, read-out: Minimum inhibitory concentration (MIC)
Protocol: as §2

[20] = test system: Mycobacterium tuberculosis H 37 RV; test: as above; type: cell-based; conditions: H37RV, 37° C, 18, 24 and 48 h, read-out: Minimum inhibitory concentration (MIC)
Protocol: as §2

[21] = test system: Mycoplasma gallisepticum; test: as above; type: cell-based; conditions: Mycoplasmoides gallisepticum, 37° C, 18, 24 and 48 h, read-out: Minimum inhibitory concentration (MIC)
Protocol: as §2

[22] = test system: Neisseria catharalis N 1/41; test: as above; type: cell-based; conditions: N1/41, 37° C, 18, 24 and 48 h, read-out: Minimum inhibitory concentration (MIC)
Protocol: as §2

[23] = test system: Proteus mirabilis 2935; test: as above; type: cell-based; conditions: 37° C, 18, 24 and 48 h, read-out: Minimum inhibitory concentration (MIC)
Protocol: as §2

[24] = test system: Proteus mirabilis G; test: as above; type: cell-based; conditions: 37° C, 18, 24 and 48 h, read-out: Minimum inhibitory concentration (MIC)
Protocol: as §2

[25] = test system: Proteus vulgaris 1017; test: as above; type: cell-based; conditions: 37° C, 18, 24 and 48 h, read-out: Minimum inhibitory concentration (MIC)
Protocol: as §2

[26] = test system: Proteus vulgaris 3400; test: as above; type: cell-based; conditions: 37° C, 18, 24 and 48 h, read-out: Minimum inhibitory concentration (MIC)
Protocol: as §2

[27] = test system: Pseudomonas aeruginosa B; test: as above; type: cell-based; conditions: 37° C, 18, 24 and 48 h, read-out: Minimum inhibitory concentration (MIC)
Protocol: as §2

[28] = test system: Pseudomonas aeruginosa M; test: as above; type: cell-based; conditions: 37° C, 18, 24 and 48 h, read-out: Minimum inhibitory concentration (MIC)
Protocol: as §2

[29] = test system: Pseudomonas aeruginosa W; test: as above; type: cell-based; conditions: 37° C, 18, 24 and 48 h, read-out: Minimum inhibitory concentration (MIC)
Protocol: as §2

[30] = test system: Salmonella paratyphii BB II; test: as above; type: cell-based; conditions: 37° C, 18, 24 and 48 h, read-out: Minimum inhibitory concentration (MIC)
Protocol: as §2

[31] = test system: Staphylococcus aureus 133; test: as above; type: cell-based; conditions: 37° C, 18, 24 and 48 h, read-out: Minimum inhibitory concentration (MIC)
Protocol: as §2

[32] = test system: Staphylococcus aureus 7705; test: as above; type: cell-based; conditions: 37° C, 18, 24 and 48 h, read-out: Minimum inhibitory concentration (MIC)
Protocol: as §2

[33] = test system: Staphylococcus aureus BRL; test: as above; type: cell-based; conditions: 37° C, 18, 24 and 48 h, read-out: Minimum inhibitory concentration (MIC)
Protocol: as §2

[34] = test system: Streptococcus faecalis ATCC 13; test: as above; type: cell-based; conditions: Enterococcus faecalis, ATCC13, 37° C, 18, 24 and 48 h, read-out: Minimum inhibitory concentration (MIC)
Protocol: as §2

[35] = test system: Streptococcus faecalis ATCC 8564; test: as above; type: cell-based; conditions: Enterococcus faecalis, ATCC8564, 37° C, 18, 24 and 48 h, read-out: Minimum inhibitory concentration (MIC)
Protocol: as §2

[36] = test system: Streptococcus faecalis ATCC 8580; test: as above; type: cell-based; conditions: Enterococcus faecalis, ATCC8580, 37° C, 18, 24 and 48 h, read-out: Minimum inhibitory concentration (MIC)
Protocol: as §2

[37] = test system: Streptococcus faecalis ATCC 8698; test: as above; type: cell-based; conditions: Enterococcus faecalis, ATCC8698, 37° C, 18, 24 and 48 h, read-out: Minimum inhibitory concentration (MIC)
Protocol: as §2

[38] = test system: Streptococcus faecalis ATCC 8699; test: as above; type: cell-based; conditions: Enterococcus faecalis, ATCC8699, 37° C, 18, 24 and 48 h, read-out: Minimum inhibitory concentration (MIC)
Protocol: as §2

[39] = test system: Streptococcus faecalis ATCC 8711; test: as above; type: cell-based; conditions: Enterococcus faecalis, ATCC8711, 37° C, 18, 24 and 48 h, read-out: Minimum inhibitory concentration (MIC)
Protocol: as §2

[40] = test system: Streptococcus faecalis ATCC 9700; test: as above; type: cell-based; conditions: Enterococcus faecalis, ATCC9700, 37° C, 18, 24 and 48 h, read-out: Minimum inhibitory concentration (MIC)
Protocol: as §2

[41] = test system: Streptococcus faecalis ATCC B. H.; test: as above; type: cell-based; conditions: Enterococcus faecalis, 37° C, 18, 24 and 48 h, read-out: Minimum inhibitory concentration (MIC)
Protocol: as §2

[42] = test system: Streptococcus faecalis ATCC Blaschke; test: as above; type: cell-based; conditions: Enterococcus faecalis, 37° C, 18, 24 and 48 h, read-out: Minimum inhibitory concentration (MIC)
Protocol: as §2

[43] = test system: Streptococcus faecalis ATCC durans; test: as above; type: cell-based; conditions: Enterococcus faecalis, 37° C, 18, 24 and 48 h, read-out: Minimum inhibitory concentration (MIC)
Protocol: as §2

[44] = test system: Streptococcus faecalis ATCC liquef.; test: as above; type: cell-based; conditions: Enterococcus faecalis, 37° C, 18, 24 and 48 h, read-out: Minimum inhibitory concentration (MIC)
Protocol: as §2

[45] = test system: Streptococcus faecalis ATCC species; test: as above; type: cell-based; conditions: Enterococcus faecalis, 37° C, 18, 24 and 48 h, read-out: Minimum inhibitory concentration (MIC)
Protocol: as §2

[46] = test system: Mycoplasma gallisepticum; test: MIC, series dilution test, measured in a PPLO medium, Table 2; type: cell-based; conditions: Mycoplasmoides gallisepticum, 37° C, 18, 24 and 48 h, read-out: Minimum inhibitory concentration (MIC)
Protocol: as §2
(§3) *)measured in a PPLO medium

[47] = test system: Mycoplasma granularum; test: as above; type: cell-based; conditions: Acholeplasma granularum, 37° C, 18, 24 and 48 h, read-out: Minimum inhibitory concentration (MIC)
Protocol: as §2, §3

[48] = test system: Escherichia coli C 165; test: ED100 in mice after intraperitoneal infection, Table 3; type: in vivo; conditions: read-out: effective 100% dose (ED100)
Protocol: (§4) In animal experiments on mice, the effective 100% dose (ED100) in mg/Kg was determined for certain compounds of the invention after intraperitoneal infection and subcutaneous (s.c.) or oral (p.o.) administration of the preparation.

[49] = test system: Staphylococcus aureus 133; test: as above; type: in vivo; conditions: read-out: effective 100% dose (ED100)
Protocol: as §4

## NN=Cc1c(C(=O)O)[n+]([O-])c2ccccc2[n+]1[O-] [Example 10]
[1]
  MIC: 100 µg/mL (≈ 403 µM)

## COC(=O)NN=Cc1c(C(=O)O)[n+]([O-])c2ccccc2[n+]1[O-] [Example 13]
[2]
  MIC: 20 µg/mL (≈ 65.3 µM)
[3]
  MIC: 50 µg/mL (≈ 163 µM)
[4]
  MIC: 100 µg/mL (≈ 327 µM)
[5]
  MIC: 20 µg/mL (≈ 65.3 µM)
[6]
  MIC: 10 µg/mL (≈ 32.7 µM)
[1]
  MIC: 100 µg/mL (≈ 327 µM)
[7]
  MIC: 100 µg/mL (≈ 327 µM)
[8]
  MIC: 10 µg/mL (≈ 32.7 µM)
[9]
  MIC: 100 µg/mL (≈ 327 µM)
[10]
  MIC: 5 to 10 µg/mL (≈ 16.3 to 32.7 µM)
[11]
  MIC: 12 to 25 µg/mL (≈ 39.2 to 81.6 µM)
[12]
  MIC: 6 to 12 µg/mL (≈ 19.6 to 39.2 µM)
[13]
  MIC: 25 to 50 µg/mL (≈ 81.6 to 163 µM)
[14]
  MIC: 3 to 6 µg/mL (≈ 9.8 to 19.6 µM)
[15]
  MIC: 25 to 50 µg/mL (≈ 81.6 to 163 µM)
[16]
  MIC: 50 to 100 µg/mL (≈ 163 to 327 µM)
[17]
  MIC: 50 µg/mL (≈ 163 µM)
[18]
  MIC: 1 to 2 µg/mL (≈ 3.27 to 6.53 µM)
[19]
  MIC: 50 µg/mL (≈ 163 µM)
[20]
  MIC: 40 µg/mL (≈ 131 µM)
[21]
  MIC: 6 µg/mL (≈ 19.6 µM)
[22]
  MIC: 6 µg/mL (≈ 19.6 µM)
[23]
  MIC: 12 µg/mL (≈ 39.2 µM)
[24]
  MIC: 12 µg/mL (≈ 39.2 µM)
[25]
  MIC: 17 µg/mL (≈ 55.5 µM)
[26]
  MIC: 50 µg/mL (≈ 163 µM)
[27]
  MIC: 25 µg/mL (≈ 81.6 µM)
[28]
  MIC: 25 µg/mL (≈ 81.6 µM)
[29]
  MIC: 400 µg/mL (≈ 1310 µM)
[30]
  MIC: 12 µg/mL (≈ 39.2 µM)
[31]
  MIC: 1 µg/mL (≈ 3.27 µM)
[32]
  MIC: 12 µg/mL (≈ 39.2 µM)
[33]
  MIC: 12 µg/mL (≈ 39.2 µM)
[34]
  MIC: 25 µg/mL (≈ 81.6 µM)
[35]
  MIC: 100 µg/mL (≈ 327 µM)
[36]
  MIC: 50 µg/mL (≈ 163 µM)
[37]
  MIC: 100 µg/mL (≈ 327 µM)
[38]
  MIC: 100 µg/mL (≈ 327 µM)
[39]
  MIC: 50 µg/mL (≈ 163 µM)
[40]
  MIC: 50 µg/mL (≈ 163 µM)
[41]
  MIC: 100 µg/mL (≈ 327 µM)
[42]
  MIC: 6 to 25 µg/mL (≈ 19.6 to 81.6 µM)
[43]
  MIC: 25 µg/mL (≈ 81.6 µM)
[44]
  MIC: 50 µg/mL (≈ 163 µM)
[45]
  MIC: 100 µg/mL (≈ 327 µM)
[46]
  MIC: 6 µg/mL (≈ 19.6 µM)
[47]
  MIC: 3 µg/mL (≈ 9.8 µM)
[48]; C165, oral (p.c. [sic])
  ED100: 25 mg/kg
[48]; C165, sc, s.c.
  ED100: 25 mg/kg
[49]; Staphylococcus aureus, 133, oral (p.c. [sic])
  ED100: 50 mg/kg
[49]; Staphylococcus aureus, 133, sc, s.c.
  ED100: 25 mg/kg
